{"source": "patent US10285943B2", "about": "“Aptamer bioconjugate drug delivery device” (GreenMark Biomedical Inc., priority 2010, dated 2019)", "tested_on": "D 245 glioblastoma multiform human xenograph", "experiment": "In vivo studies of human xenographs implanted in athymic mice", "settings": "Free Dox control", "method": "Athymic mice were chosen for these studies because normal mice are capable of immunologically rejecting implanted foreign xenographs, specifically human tumors. The animals (both control and treated) were monitored for tumor regression and survival.\nThe procedure consisted of inoculation of a tumor brei into a subcutaneous site in athymic mice. The subcutaneous tumors were grown to approximately 200 cubic millimeters in size (6-8 mm in diameter). Subsequently, either the free drug or the drug loaded nanoparticles were injected at the tumor site or i.p. (intra peritoneal). […] The animals were treated in groups of 8 to 10 individuals.\nDispersions were 100 mg nanospheres/5 mL saline (1×0.5% Dox-nano), 200 mg nanospheres/5 mL saline (2×0.5% Dox-nano) or 400 mg nanospheres/5 mL saline (4×0.5% Dox-nano).\nInjections were each 0.25 mL/20 gram mouse (all single injections).\nT-C is defined as: Average of (days lived by drug-treated animal minus days lived by control animals); i.e., increased life span in days.\nThe Control was provided as follows: Varied—Untreated mice injected with saline; Untreated mice; Mice treated with drug-free nanospheres (100 mgs/5 mL saline).\nP value: Test run for significance. P values are calculated using non-parametric statistical method by Hollander and Wolfe.\nRegressions: Indicate that tumors drop below previous measurement and stay below for 2 consecutive measurements.", "data": [{"substance": "(7S,9S)-7-[(2R,4S,5S,6S)-4-amino-5-hydroxy-6-methyloxan-2-yl]oxy-6,9,11-trihydroxy-9-(2-hydroxyethyl)-4-methoxy-8,10-dihydro-7H-tetracene-5,12-dione [Free Dox]", "values": [{"measurement": "Regressions", "setting": "5 mg/kg, animals with regression/group", "value": "0/10"}, {"measurement": "Toxic deaths", "setting": "5 mg/kg, deaths/group", "value": "0/10"}, {"measurement": "T-C (increased life span in days)", "setting": "drug dose 5 mg/kg, injected at the tumor site or i.p.", "value": 1.53, "unit": "days"}]}]}
